Experimental data: patent publication US20130237478A1, “COMPOSITIONS AND METHODS FOR TREATMENT OF PERIPHERAL VASCULAR DISEASE” (TARIX PHARMACEUTICALS LTD., priority 2012, published 2013)
Positions of bridges follow the written chain, without caps; N, C: chain ends. No end group written: not given here.

Assays:
hind limb ischemia [1] = experiment: Semi-quantitative assessment of limb function in mouse hind limb ischemia model; assay type: in vivo, Balb/c mice
From the text: (§1) A stable hind limb ischemia model has been described previously and is generally characterized by uniform ischemic damage useful for examining the effect of various therapies (Goto, et al. Tokai J Exp Clin Med, 31(3):128 2006; Kang Y, et al. PLoS One. 2009; 4(1):e4275)). The hind limb ischemia model in mice used in this example involves two ligations of the proximal end of the femoral artery and its dissection between the two ligatures. The surgery causes obstruction of the blood flow and subsequently leads to severe ischemic damage (Goto, et al.; Kang, et al.). In this experiment, healthy adult female Balb/c mice were used. Hind limb ischemia was induced in mice using protocols previously described. Briefly, Balb/c female mice were maintained on a standard diet with water available ad libitum. Mice were anesthetized and an incision was made in the skin in the inguinal area. The femoral artery was ligated twice with 6-0 silk thread and transected between the ligatures after this the wound was closed with 4-0 silk thread and the mouse was allowed to recover.
An Angiotensin (1-7) polypeptide composition (TXA127) and vehicle control (DPBS) were supplied as ready to use solutions and were stored at 4° C. until use. TXA127 was injected subcutaneously (500 μg/kg) daily starting on day 1, 24 hours after inducing ischemia, until the end of the study. […]
Semi-quantitative assessment of impaired use of the ischemic limb was performed once a week post-surgery using the scale shown in Table 6 (Stabile et al, Circulation 108(2):205 2003). […]
(§2) An Angiotensin (1-7) polypeptide composition (PanCyte) and vehicle control (DPBS) were supplied as ready to use solutions and were stored at 4° C. until use. […]
Semi-quantitative assessment of impaired use of the ischemic limb was performed once a week post-surgery using the scale shown in Table 6 above. […]
An Angiotensin (1-7) polypeptide composition (PanCyte, cyclized Asp^1-Arg^2-Val^3-Ser^4-Ile^5-His^6-Cys (SEQ ID NO:22)) and vehicle control (DPBS) were supplied as ready to use solutions and were stored at 4° C. until use. […]

[2] = system: Transient middle cerebral artery occlusion (tMCAO); experiment: Stepping test (forelimb akinesia) after tMCAO stroke; assay type: in vivo, rats; details: all experimental conditions (Table 22); by Day 28 post-surgery
Method: For the purposes of this example, Transient middle cerebral artery occlusion (tMCAO) procedure Day is defined as “Day 1” in this study. On the day of surgery anesthesia were induced with 4% isoflurane in a mixture of 70% N2O and 30% O2 and maintained with 1.5-2% isoflurane.
The tMCAO procedures were performed according to the method described R. Schmid-Elsaesser et al. Briefly, the right CCA (Common Carotid Artery) was exposed through a midline neck incision and carefully dissected free from surrounding nerves and fascia—from its bifurcation to the base of the skull. The occipital artery branches of the ECA (External Carotid Artery) were then isolated, and these branches were dissected and coagulated. The ECA was dissected further distally and coagulated along with the terminal lingual and maxillary artery branches, which was then divided. The ICA (Internal Carotid Artery) was isolated and carefully separated from the adjacent vagus nerve, and the pterygopalatine artery was ligated close to its origin with a 5-0 nylon suture (SMI, Belgium). Next, a 4-0 silk suture was tied loosely around the mobilized ECA stump, and a 4 cm length of 4-0 monofilament nylon suture (the tip of the suture was blunted by using a flame, and the suture was coated with polylysine, prior to insertion) was inserted through the proximal ECA into the ICA and thence into the circle of Willis, effectively occluding the MCA. The surgical wound was closed and the animals were returned to their cages to recover from anesthesia. […]
Animals were tested for forelimb akinesia in a stepping test (ST). The animal was held with its hind limbs fixed with one hand and the forelimb not to be monitored with the other, while the unrestrained fore-paw touches the table. The number of adjusting steps are counted while the animal is moved sideways along the table surface (85 cm in approximately five seconds), in the forehand & backhand direction for both forelimbs. […]

hind limb ischemia [3] = experiment: Capillary density in muscle sections, mouse hind limb ischemia model; assay type: in vivo, Balb/c mice; details: Example 2, 49 days after treatment beginning
From the text: as §1, with “The” for “A stable hind limb ischemia”, “used in this example” for “has been described previously and”, “the same as” for “generally characterized by uniform ischemic damage useful”, “Example 1. Briefly,” for “examining”, “the” for “the effect of various therapies (Goto, et al. Tokai J Exp Clin Med, 31(3):128 2006; Kang Y, et al. PLoS One. 2009; 4(1):e4275)). The”
as §2
Sections of muscle samples were taken from the same areas in 6-7 animals from each group. Capillaries were counted under a microscope in a total 12 random fields from different sections. Density was expressed as the mean number of capillaries per field of view. […]

cyclized Asp^1-Arg^2-Val^3-Ser^4-Ile^5-His^6-Cys (SEQ ID NO:22) (DRVSIHC; bridge 4-7; not fully specified; printed as Asp1-Arg2-Val3-Ser4-Ile5-His6-Cys7) [PanCyte, cyclic angiotensin peptide]
limb function vs control (hind limb ischemia [1]; Example 2, 500 μg/kg SC daily (2F), day 28): improvement in limb function | limb function vs control (hind limb ischemia [1]; Example 3, 1 μg/kg SC daily (2F), days 14 and 21): improvement in limb function | limb function vs control (hind limb ischemia [1]; Example 3, 50 μg/kg continuous infusion by Alzet pump (6F), days 14 and 21): improvement in limb function | stepping test performance vs vehicle [2]: significantly improved the performance | capillary density (number of capillaries per field) vs control (hind limb ischemia [3]; 50 μg/kg SC daily): significantly increased the number of capillaries | capillary density (number of capillaries per field) vs control (hind limb ischemia [3]; 500 μg/kg SC daily): significantly increased the number of capillaries
